Residues, ends and D or L forms follow the SMILES beside them. *: point of attachment. X1 = O=C(O)C[C@H](N*)C(=O)COc1c(F)cccc1F; Quinaldoyl = O=C(c1ccc2ccccc2n1)*
What was measured:
[1] = test system: HeLa cells; assay: Protection against cellular death induced by vincristine, propidium iodide flow cytometry; format: cell-based, human; conditions: compound at 3, 10, 30 and 60 μM added 1 hour before 20 nM vincristine, 48 hours
Procedure: In this example, the protective effect of the compound 2 of the invention against cellular death induced by vincristine (a vinca alkaloid) is tested using a well-known flow cytometry cell death assay based on propidium iodide staining.
To evaluate the protecting effect of compound 2, a Caspase-dependent cellular model is used.
Human HeLa cells are used in this model. HeLa cells (cervical cancer cell line) were obtained from American Type Cell Collection (ATCC), and were cultured in Dulbecco's Modified Eagle Medium (DMEM, High Glucose, GlutaMAX™, Pyruvate) (Gibco, Life technologies), supplemented with 10% FCS and antibiotics (Gibco, Life technologies).
Human HeLa cells are treated with Vincristine (Sigma Aldrich) solubilized in water at 5 mM. Vincristine works partly by binding to the tubulin protein, stopping the cell from separating its chromosomes during the metaphase; the cell then undergoes apoptosis.
Propidium iodide (PI) (Sigma Aldrich) is used to evaluate plasma membrane permeabilisation, a sign of cell death. […]
The cells are then analyzed by flow cytometry with an excitation of 561 nm.
Fluorescence-Activated Cell Sorting was performed using a FACSCalibur cytometer (Becton Dickinson, San Jose, Calif.). For each sample, data from 5,000 Cells were registered and analyzed with the CellQuest Pro™ software (Becton Dickinson). […]

[2] = target: T1, Caspase-2 (Homo sapiens, UniProt P42575); assay: Caspase-2 inhibition assay (in vitro), kinact/KI by continuous method; format: biochemical; conditions: for kinact/KI: human recombinant Caspase-2 0.1 nM, substrate Ac-VDVAD-AMC, 37° C., read-out: Inactivation constant kinact/KI Caspase-2 (converted); for times more efficient to inactivate Caspase-2 than to inactivate Caspase-3 (selectivity): ratio of kinact/KI Caspase-2 versus Caspase-3
T1 construct: the Caspase-2 and Caspase-3 are human recombinant active enzymes; purchased Enzo Life ALX-201-057-U100
T1 sequence (P42575 170-325 limits assumed): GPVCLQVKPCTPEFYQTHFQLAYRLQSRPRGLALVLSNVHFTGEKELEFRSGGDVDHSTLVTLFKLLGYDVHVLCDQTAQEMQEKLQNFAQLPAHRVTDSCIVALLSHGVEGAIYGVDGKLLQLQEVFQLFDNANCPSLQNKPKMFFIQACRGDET
T1 sequence (P42575 348-452 limits assumed): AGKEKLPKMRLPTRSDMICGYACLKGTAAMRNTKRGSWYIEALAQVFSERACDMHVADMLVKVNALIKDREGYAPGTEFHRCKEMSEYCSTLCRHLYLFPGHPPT
Description: (§1) The efficiency of the compound 2 of the invention to inhibit Caspase-2 and Caspase-3 has been evaluated by using the below explained protocol.
(§2) The efficiency of the comparative compound Δ2Me-TRP601, that is an already known group II Caspase inhibitor (inhibitor of Caspase-2, Caspase-3 and Caspase-7), has been assessed by a similar protocol described in Chauvier et al., 2011 Cell Death Dis 2011, 2:e203.
In this example, the Caspase-2 and Caspase-3 are human recombinant active enzymes that are respectively provided by Enzo Life® (ALX-201-057-U100) and R&D Systems® (707-C3-010/CF).
Caspase-2 is used at a final concentration of 0.1 nM in a “Caspase-2 buffer” containing 20 mM HEPES (pH 7.4), 5 mM DTT, 2 mM EDTA, 0.1% CHAPS and 800 mM succinate. Caspase-3 is used at a final concentration of 0.5 nM in a “Caspase-3 buffer” containing 20 mM HEPES (pH 7.4), 0.1% CHAPS, 5 mM DTT, and 2 mM EDTA.
(§3) The peptide substrates used for the enzymatic activity measurements are Ac-DEVD-AMC and Ac-VDVAD-AMC commercialized by EnzoLife® (respectively referenced ALX-260-031-M005 and ALX-260-060-M005). They are fluorogenic due to the presence of their AMC (7-amino-4-methylcoumarin) end group. The releasing of AMC enables to follow the enzymatic activity in fluorescence unit RFU over time in a 96-wells microplate (COSTAR 3915).
The fluorescence values are measured at 37° C. with a spectrofluorometer with a microplate reader BMG FLUOstar OPTIMA. This apparatus is driven by the software Biolise® and is equipped with thermoelectric cooling device by Peltier effect. The mathematic analysis of the experimental data are done with the software Kaleidagraph@.
The inhibitory properties of the tested compounds are evaluated by the determination of the kinact/KI ratio regarding either Caspase-2 or Caspase-3 wherein: • kinact is the maximal inactivation rate constant, and • KI is the dissociation constant according to:
Said ratio is measured according to the continuous method (Allison R D. Curr Protoc Protein Sci. 2001 May; Chapter 3:Unit 3.5.; Chauvier et al., 2011 Cell Death Dis 2:e203; Tan et al., J Med Chem 2015, […]).
Briefly, Caspases activities were determined by monitoring the hydrolysis of fluorogenic substrates (λexc=355 nm, λem=460 nm) as a function of time, in the presence of untreated Caspases (control) or Caspases that had been incubated with a test compound, for 30 min minimum at 37° C. using a BMG Fluostar microplate reader (black 96-well microplates) and the initial velocity (V0) was determined from the linear portion of the progress curve.
Substrates and compounds were previously dissolved in DMSO at 10 mM, with the final solvent concentration kept at lower 4% (v/v). V0, relative velocities, KM and IC50 were determined from experimental datas using Mars datas Analysis 2.0 and Kaleidagraph softwares.
Inhibitor binding affinity (dissociation constant, KI) and first-order rate constant (k3) parameters were determined for Caspase-2 and Caspase-3 using the progress curve method. The ratio k3/KI was obtained by fitting the experimental data to the equations (F.U., fluorescence unit): […]
A continuous method of determination of the kinact/KI ratio was used for evaluating the inhibitory activity of the tested compounds against Caspase-2 and Caspase-3.
The reaction mixture is prepared by letting the enzyme and the buffer incubate at 37° C. […]
(§4) The activities of the enzyme are measured between 45 and 60 minutes. […]

[3] = target: T2, Caspase-3 (Homo sapiens, UniProt P42574); assay: Caspase-3 inhibition assay (in vitro), kinact/KI by continuous method; format: biochemical; conditions: human recombinant Caspase-3 0.5 nM, substrate Ac-DEVD-AMC, 37° C.; read-out: Inactivation constant kinact/KI Caspase-3 (converted)
T2 construct: the Caspase-2 and Caspase-3 are human recombinant active enzymes; purchased R&D Systems 707-C3-010/CF
T2 sequence (P42574 29-175 limits assumed): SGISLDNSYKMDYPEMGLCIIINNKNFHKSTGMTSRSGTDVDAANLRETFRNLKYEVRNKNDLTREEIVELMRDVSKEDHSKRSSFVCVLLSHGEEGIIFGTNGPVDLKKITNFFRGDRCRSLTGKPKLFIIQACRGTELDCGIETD
T2 sequence (P42574 176-277 limits assumed): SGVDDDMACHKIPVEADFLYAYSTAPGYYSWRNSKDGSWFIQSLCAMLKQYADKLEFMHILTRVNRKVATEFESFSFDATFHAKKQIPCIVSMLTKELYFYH
Description: as §1, §2
In this example, the Caspase-2 and Caspase-3 are human recombinant active enzymes that are respectively provided by Enzo Life® (ALX-201-057-U100) and R&D Systems® (707-C3-010/CF). […]
as §3, with “They are fluorogenic due to the presence of their AMC (7-amino-4-methylcoumarin) end group.” left out
The fluorescence values are measured at 37° C. with a spectrofluorometer with a microplate reader BMG FLUOstar OPTIMA. […]
The inhibitory properties of the tested compounds are evaluated by the determination of the kinact/KI ratio regarding either Caspase-2 or Caspase-3 wherein: • kinact is the maximal inactivation rate constant, and • KI is the dissociation constant according to: […]
as §4

SMILES | protection of cells against apoptotic death induced by vincristine (percentage of propidium iodide positive cells) [1] | efficiency to inhibit Caspase-2 (in words) ([2]; compared with Δ2Me-TRP601) | kinact/KI [2] [M⁻¹ s⁻¹] | times more efficient to inactivate Caspase-2 than to inactivate Caspase-3 (selectivity) [2] | kinact/KI [3] [M⁻¹ s⁻¹]
Cc1ccc2c(c1)CCN(C(=O)[C@@H](NC(=O)[C@H](CC(=O)O)NC(=O)[C@@H](NC(=O)c1ccc3ccccc3n1)C(C)C)C(C)C)[C@@H]2C(=O)N[C@@H](CC(=O)O)C(=O)COc1c(F)cccc1F [Compound 2, (S)-3-((S)-2-((S)-2-((S)-3-carboxy-2-((S)-3-methyl-2-(quinoline-2-carboxamido)butanamido)propanamido)-3-methylbutanoyl)-6-methyl-1,2,3,4-tetrahydroisoquinoline-1-carboxamido)-5-(2,6-difluorophenoxy)-4-oxopentanoic acid] | protects the cells against apoptotic death induced by vincristine in a dose-dependent manner | as efficient as Δ2Me-TRP601 to inhibit Caspase-2 | 1.76e+06 | 57 times | 30500
CC(C)[C@H](NC(=O)c1ccc2ccccc2n1)C(=O)N[C@@H](CC(=O)O)C(=O)N[C@H](C(=O)N[C@@H](C)C(=O)N[C@@H](CC(=O)O)C(=O)COc1c(F)cccc1F)C(C)C [Δ2Me-TRP-601, reference compound] (Quinaldoyl-VDVA-X1) | – | – | 1.57e+06 | does not exhibit this selectivity | 1.92e+06
